Results published in patent US9206184B2, “Disubstituted benzothienyl-pyrrolotriazines and uses thereof” (BAYER INTELLECTUAL PROPERTY GmbH, priority 2011, dated 2015).
Where a name gives a salt, the structure may show the parent alone.

How the values were obtained:
human FGFR-1 = human FGFR-1 (Homo sapiens, UniProt P11362); experiment: FGFR-1 high ATP kinase assay (TR-FRET); type: biochemical; settings: 2 mM ATP, 15 min pre-incubation with enzyme, compounds of the invention
human FGFR-3 = human FGFR-3 (Homo sapiens (Human), UniProt P22607); experiment: FGFR-3 kinase assay (TR-FRET); type: biochemical; settings: 10 μM ATP
[1] = 15 min pre-incubation with enzyme, compounds of the invention, dihydrochloride
[2] = comparative prior art compounds, labels are Example No. in WO 2007/061737
[3] = 15 min pre-incubation with enzyme, compounds of the invention

Sequence of human FGFR-3 (P22607 397-806): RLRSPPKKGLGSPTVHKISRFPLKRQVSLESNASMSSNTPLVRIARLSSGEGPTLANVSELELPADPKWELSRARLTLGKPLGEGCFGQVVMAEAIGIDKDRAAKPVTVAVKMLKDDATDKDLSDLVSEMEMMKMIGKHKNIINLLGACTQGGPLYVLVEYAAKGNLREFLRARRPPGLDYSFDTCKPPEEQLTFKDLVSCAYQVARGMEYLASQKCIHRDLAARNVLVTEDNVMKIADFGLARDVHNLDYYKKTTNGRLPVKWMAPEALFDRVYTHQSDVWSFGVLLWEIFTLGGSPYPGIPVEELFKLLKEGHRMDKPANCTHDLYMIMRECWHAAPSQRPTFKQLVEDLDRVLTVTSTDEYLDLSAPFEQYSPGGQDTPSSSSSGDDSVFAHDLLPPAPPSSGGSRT
Sequence of human FGFR-1 (P11362 22-822 limits assumed): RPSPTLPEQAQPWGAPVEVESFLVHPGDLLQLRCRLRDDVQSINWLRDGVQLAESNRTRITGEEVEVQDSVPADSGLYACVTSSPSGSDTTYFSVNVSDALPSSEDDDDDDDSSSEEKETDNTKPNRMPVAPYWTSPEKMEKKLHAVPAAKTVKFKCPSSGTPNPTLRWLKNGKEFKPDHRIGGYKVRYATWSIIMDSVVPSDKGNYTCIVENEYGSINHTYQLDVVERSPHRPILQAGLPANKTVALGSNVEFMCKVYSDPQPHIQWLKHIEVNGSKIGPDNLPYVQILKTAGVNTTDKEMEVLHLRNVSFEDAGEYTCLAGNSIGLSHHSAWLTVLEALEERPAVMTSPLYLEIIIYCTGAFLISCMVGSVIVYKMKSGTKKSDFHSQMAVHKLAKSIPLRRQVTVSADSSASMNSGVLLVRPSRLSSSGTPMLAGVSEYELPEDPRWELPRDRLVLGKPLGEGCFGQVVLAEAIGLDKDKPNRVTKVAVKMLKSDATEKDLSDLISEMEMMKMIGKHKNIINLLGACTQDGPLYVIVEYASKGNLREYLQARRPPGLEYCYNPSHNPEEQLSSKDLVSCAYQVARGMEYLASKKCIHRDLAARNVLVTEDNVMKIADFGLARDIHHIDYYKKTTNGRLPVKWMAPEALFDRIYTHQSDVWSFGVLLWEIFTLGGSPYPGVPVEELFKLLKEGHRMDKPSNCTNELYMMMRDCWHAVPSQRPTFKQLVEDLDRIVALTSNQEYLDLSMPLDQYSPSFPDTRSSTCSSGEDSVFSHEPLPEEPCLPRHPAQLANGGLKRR

| Structure (SMILES) | IC50 (human FGFR-1) [nM] | further results |
| --- | --- | --- |
| CCN(CC)Cc1c(-c2cc3cc(C)cc(OC)c3s2)c2c(N)ncnn2c1CN1CCNCC1 [Example 43, 6-[(Diethylamino)methyl]-5-(7-methoxy-5-methyl-1-benzothiophen-2-yl)-7-(piperazin-1-ylmethyl)pyrrolo[2,1-f][1,2,4]triazin-4-amine trihydrochloride] | 8.6 |  |
| CCOCc1c(-c2cc3cc(C)cc(OC)c3s2)c2c(N)ncnn2c1C(=O)NC [Example 110] | 17.5 |  |
| CCOCc1c(-c2cc3cc(C)cc(OC)c3s2)c2c(N)ncnn2c1C(=O)N1CCS(=O)(=O)CC1 [Example 123] | 25.1 |  |
| CCOCc1c(-c2cc3cc(C)cc(OC)c3s2)c2c(N)ncnn2c1C(=O)N1CCCCO1 [Example 112] | 42.1 |  |
| COCc1c(-c2cc3cccc(OC)c3s2)c2c(N)ncnn2c1CN1CCNC(=O)C1 [Example 88, 4-{[4-Amino-5-(7-methoxy-1-benzothiophen-2-yl)-6-(methoxymethyl)pyrrolo[2,1-f][1,2,4]triazin-7-yl]methyl}piperazin-2-one] | 79.6 |  |
| CCOCc1c(-c2cc3cc(C)cc(OC)c3s2)c2c(N)ncnn2c1CN1CCOCC1 [Example 10, 6-(Ethoxymethyl)-5-(7-methoxy-5-methyl-1-benzothiophen-2-yl)-7-(morpholin-4-ylmethyl)pyrrolo[2,1-f][1,2,4]triazin-4-amine] | 12.7 |  |
| CCOCc1c(-c2cc3cc(C)cc(OC)c3s2)c2c(N)ncnn2c1CN1CCCCO1 [Example 94] | 81.9 |  |
| COCc1c(-c2cc3cc(OC)cc(OC)c3s2)c2c(N)ncnn2c1CN1CCNC(=O)C1 [Example 124, 4-{[4-Amino-5-(5,7-dimethoxy-1-benzothiophen-2-yl)-6-(methoxymethyl)pyrrolo[2,1-f][1,2,4]-triazin-7-yl]methyl}piperazin-2-one] | 27.3 |  |
| COCc1c(-c2cc3cc(C)cc(OC)c3s2)c2c(N)ncnn2c1CN[C@@H]1CCNC1=O [Example 3, (3R)-3-({[4-Amino-6-(methoxymethyl)-5-(7-methoxy-5-methyl-1-benzothiophen-2-yl)pyrrolo-[2,1-f][1,2,4]triazin-7-yl]methyl}amino)pyrrolidin-2-one dihydrochloride] |  | IC50 (human FGFR-3; [1]): 46.6 nM |
| CCNC(=O)c1c(COCC)c(-c2cc3cc(C)cc(OC)c3s2)c2c(N)ncnn12 [Example 111] | 27 |  |
| CCOCc1c(-c2cc3cc(C)cc(OC)c3s2)c2c(N)ncnn2c1CN1CC(O)C1 [Example 97] | 16.4 |  |
| CCOCc1c(-c2cc3cc(C)cc(OC)c3s2)c2c(N)ncnn2c1CN1CCNC1=O [Example 87, 1-{[4-Amino-6-(ethoxymethyl)-5-(7-methoxy-5-methyl-1-benzothiophen-2-yl)pyrrolo[2,1-f]-[1,2,4]triazin-7-yl]methyl}imidazolidin-2-one] | 14.1 |  |
| CCOCc1c(-c2cc3cc(C)cc(OC)c3s2)c2c(N)ncnn2c1CN[C@@H]1CCNC1=O [Example 8, (3R)-3-({[4-Amino-6-(ethoxymethyl)-5-(7-methoxy-5-methyl-1-benzothiophen-2-yl)pyrrolo-[2,1-f][1,2,4]triazin-7-yl]methyl}amino)pyrrolidin-2-one] | 9.4 |  |
| CCOCc1c(-c2cc3cc(C)cc(OC)c3s2)c2c(N)ncnn2c1C(=O)N1CCC(O)C1 (centres unmarked) [Example 118] | 6.8 |  |
| CCOCc1c(-c2cc3cc(C)cc(OC)c3s2)c2c(N)ncnn2c1CN1CNC(=O)C1 [Example 104] | 5.6 |  |
| Cc1c(-c2nc(C3CCC3)n3ccnc(N)c23)sc2ccccc12 [Example 210 in WO 2007/061737, reference compound] |  | IC50 (human FGFR-3; [2]): 554 nM |
| COc1cc(C)cc2cc(-c3c(CO)c(CN4CCNCC4)n4ncnc(N)c34)sc12 [Example 12, [4-Amino-5-(7-methoxy-5-methyl-1-benzothiophen-2-yl)-7-(piperazin-1-ylmethyl)pyrrolo[2,1-f]-[1,2,4]triazin-6-yl]methanol bis(formiate)] | 3.3 |  |
| CCOCc1c(-c2cc3cc(C)cc(OC)c3s2)c2c(N)ncnn2c1CN1CCC(O)C1 (centres unmarked) [Example 101] | 30.8 |  |
| CCOCc1c(-c2cc3cc(C)cc(OC)c3s2)c2c(N)ncnn2c1C(=O)N1CCC(C(N)=O)CC1 [Example 113] | 52.7 |  |
| CCOCc1c(-c2cc3cc(C)cc(OC)c3s2)c2c(N)ncnn2c1C(N)=O [Example 109] | 8.4 |  |
| CCOCc1c(-c2cc3cc(C)cc(OC)c3s2)c2c(N)ncnn2c1CN1CCNC(=O)C1C (centres unmarked) [Example 105] | 8.7 |  |

| Structure (SMILES) | IC50 (human FGFR-1) [nM] | further results |
| --- | --- | --- |
| COCc1c(-c2cc3cc(C)cc(OC)c3s2)c2c(N)ncnn2c1CN1CCNCC1 [Example 17, 6-(Methoxymethyl)-5-(7-methoxy-5-methyl-1-benzothiophen-2-yl)-7-(piperazin-1-ylmethyl)pyrrolo[2,1-f][1,2,4]triazin-4-amine formiate] | 0.9 |  |
| Nc1nccn2c(C3CCC3)nc(-c3cc4cccc(Cl)c4s3)c12 [Example 233 in WO 2007/061737, reference compound] |  | IC50 (human FGFR-3; [2]): 10000 nM |
| CCOCc1c(-c2cc3cc(C)cc(OC)c3s2)c2c(N)ncnn2c1CN[C@@H]1CCNC1=O [Example 7, (3R)-3-({[4-Amino-6-(ethoxymethyl)-5-(7-methoxy-5-methyl-1-benzothiophen-2-yl)pyrrolo-[2,1-f][1,2,4]triazin-7-yl]methyl}amino)pyrrolidin-2-one dihydrochloride] |  | IC50 (human FGFR-1; dihydrochloride): 4.2 nM |
| COCc1c(-c2cc3cc(C)cc(OC)c3s2)c2c(N)ncnn2c1CN[C@@H]1CCNC1=O [Example 4, (3R)-3-({[4-Amino-6-(methoxymethyl)-5-(7-methoxy-5-methyl-1-benzothiophen-2-yl)pyrrolo-[2,1-f][1,2,4]triazin-7-yl]methyl}amino)pyrrolidin-2-one] |  | IC50 (human FGFR-3; [3]): 24.8 nM |
| COc1cc(C)cc2cc(-c3c(COC(C)C)c(CN4CCNCC4)n4ncnc(N)c34)sc12 [Example 27, 6-(Isopropoxymethyl)-5-(7-methoxy-5-methyl-1-benzothiophen-2-yl)-7-(piperazin-1-ylmethyl)pyrrolo[2,1-f][1,2,4]triazin-4-amine formiate] | 1.3 |  |
| CCOCc1c(-c2cc3cc(C)cc(OC)c3s2)c2c(N)ncnn2c1C(=O)NC1CC1 [Example 115] | 24.9 |  |
| CCOCc1c(-c2cc3cc(C)cc(OC)c3s2)c2c(N)ncnn2c1CN[C@H]1CCNC1=O [Example 93, (3S)-3-({[4-Amino-6-(ethoxymethyl)-5-(7-methoxy-5-methyl-1-benzothiophen-2-yl)pyrrolo[2,1-f]-[1,2,4]triazin-7-yl]methyl}amino)pyrrolidin-2-one] | 5.5 |  |
| CCOCc1c(-c2cc3cc(C)cc(OC)c3s2)c2c(N)ncnn2c1CN1CCNC(=O)C1 [Example 6, 4-{[4-Amino-6-(ethoxymethyl)-5-(7-methoxy-5-methyl-1-benzothiophen-2-yl)pyrrolo-[2,1-f][1,2,4]triazin-7-yl]methyl}piperazin-2-one dihydrochloride] |  | IC50 (human FGFR-3; [1]): 28.5 nM |
| CNCc1c(-c2cc3cc(C)cc(OC)c3s2)c2c(N)ncnn2c1CN1CCNCC1 [Example 36, 5-(7-Methoxy-5-methyl-1-benzothiophen-2-yl)-6-[(methylamino)methyl]-7-(piperazin-1-ylmethyl)pyrrolo[2,1-f][1,2,4]triazin-4-amine trihydrochloride] | 3 |  |
| CCOCc1c(-c2cc3cc(C)cc(OC)c3s2)c2c(N)ncnn2c1CN1CCN(C2CC2)CC1 [Example 100] | 54.5 |  |
| CCOCc1c(-c2cc3cc(C)cc(OC)c3s2)c2c(N)ncnn2c1C(=O)N[C@H]1CCNC1=O [Example 116] | 3.7 |  |
| CCOCc1c(-c2cc3cc(C)cc(OC)c3s2)c2c(N)ncnn2c1CN1CCNC(=O)C1 [Example 5, 4-{[4-Amino-6-(ethoxymethyl)-5-(7-methoxy-5-methyl-1-benzothiophen-2-yl)pyrrolo[2,1-f]-[1,2,4]triazin-7-yl]methyl}piperazin-2-one] |  | IC50 (human FGFR-3; [3]): 12.1 nM |
| CCCCOCc1c(-c2cc3cc(C)cc(OC)c3s2)c2c(N)ncnn2c1CN1CCNCC1 [Example 23, 6-(Butoxymethyl)-5-(7-methoxy-5-methyl-1-benzothiophen-2-yl)-7-(piperazin-1-ylmethyl)pyrrolo-[2,1-f][1,2,4]triazin-4-amine formiate] | 17.9 |  |
| CCOCc1c(-c2cc3cc(C)cc(OC)c3s2)c2c(N)ncnn2c1CN1CCCC1 [Example 96] | 54.5 |  |
| CCCOCc1c(-c2cc3cc(C)cc(OC)c3s2)c2c(N)ncnn2c1CN1CCNCC1 [Example 24, 5-(7-Methoxy-5-methyl-1-benzothiophen-2-yl)-7-(piperazin-1-ylmethyl)-6-(propoxymethyl)pyrrolo[2,1-f][1,2,4]triazin-4-amine bis(formiate)] | 1.3 |  |
| COc1cc(C)cc2cc(-c3c(CN4CCNC(=O)C4)c(CO)n4ncnc(N)c34)sc12 [Example 125, 4-{[4-Amino-7-(hydroxymethyl)-5-(7-methoxy-5-methyl-1-benzothiophen-2-yl)pyrrolo[2,1-f]-[1,2,4]triazin-6-yl]methyl}piperazin-2-one] | 5 |  |
| COc1cc(C)cc2cc(-c3c(-c4cnco4)c(CN4CCNCC4)n4ncnc(N)c34)sc12 [Example 61, 5-(7-Methoxy-5-methyl-1-benzothiophen-2-yl)-6-(1,3-oxazol-5-yl)-7-(piperazin-1-ylmethyl)pyrrolo[2,1-f][1,2,4]triazin-4-amine trihydrochloride] | 0.5 |  |
| CCOCc1c(-c2cc3cc(C)cc(OC)c3s2)c2c(N)ncnn2c1C(=O)N1CC(F)(F)C1 [Example 122] | 18.9 |  |
| COC(=O)COCc1c(-c2cc3cc(C)cc(OC)c3s2)c2c(N)ncnn2c1CN1CCNCC1 [Example 31, Methyl{[4-amino-5-(7-methoxy-5-methyl-1-benzothiophen-2-yl)-7-(piperazin-1-ylmethyl)pyrrolo[2,1-f][1,2,4]triazin-6-yl]methoxy}acetate] | 1.5 |  |
| COc1cc(C)cc2cc(-c3c(CNC4CCC4)c(CN4CCNCC4)n4ncnc(N)c34)sc12 [Example 44, 6-[(Cyclobutylamino)methyl]-5-(7-methoxy-5-methyl-1-benzothiophen-2-yl)-7-(piperazin-1-ylmethyl)pyrrolo[2,1-f][1,2,4]triazin-4-amine trihydrochloride] |  | IC50 (human FGFR-3; [3]): 6.1 nM |
